Test results from publication PMC5344956 (Cancer Chemotherapy and Pharmacology, 2017).

Columns and labels:
[1] = Metabolite profiling of plasma (HPLC-radiochromatography); assay type: in vivo, human; details: % of TRA
Method: For each subject, a 0–24 h pooled plasma sample was prepared according to the scheme outlined in the literature. In addition, several pooled plasma samples across all subjects were prepared at these time points: 5, 10, 12, […], and 48 h, and every 24 h thereafter until 240 h.
All pooled 0–24, 5, 10, 12, and 24 h plasma samples were processed as follows. […] The samples were vortexed for 30 min and centrifuged at 4500g at 4 °C for 6 min. The supernatants were transferred into new polypropylene tubes and kept on ice. The resulting plasma protein pellets were extracted twice to ensure good recovery and the extracts were combined. The combined extracts were loaded onto Ostro sample preparation plates (Waters Corporation, Milford, MA, USA), dried, eluted with 0.2 mL of cold acetonitrile, and all eluates were collected and evaporated under nitrogen (TurboVap LV; Caliper Life Sciences, Hopkinton, MA, USA). The dry residues were reconstituted in 0.1 mL of methanol, and a 0.005-mL aliquot was removed for determination of radioactivity. The remainder of the supernatants were transferred to high-performance liquid chromatography (HPLC) vials and stored at −80 °C until analysis.
Pooled post-24-h plasma samples were extracted using a slightly modified procedure. […] Appropriate volumes of formic acid were added to achieve a final concentration of 1%. Then, the samples were warmed to 37 °C and loaded to preconditioned Oasis HLB cartridges (Waters Corporation, Milford, MA, USA). These columns were then washed with water, dried under vacuum, and eluted with methanol. The eluates were collected and evaporated under nitrogen. The dry residues were reconstituted in 0.1 mL of methanol, and a 0.005-mL aliquot was removed for determination of radioactivity. The remainder of the supernatants were transferred to HPLC vials and stored at −80 °C until analysis.
(§1) A Finnigan Surveyor HPLC system (Thermo Fisher Scientific Inc., San Jose, CA, USA), consisting of an LC pump plus an autosampler and a UV–Vis plus detector, was used mostly for profiling (except the post-24-h plasma samples, which were analyzed using a Dionex HPLC system). A Phenomenex® Gemini® C18, 5-μm, 3.0 × 100-mm column (Phenomenex Inc., Torrance, CA, USA) was used along with a C-12 guard column (4 × 2 mm). LC conditions were as follows: solvent A was 10 mM ammonium bicarbonate in water (pH 10.0) and solvent B was 100% methanol and the flow rate was 0.8 mL/min. The following gradient was employed (B%): 0–5 min (20%), 32 min (42%), 33 min (60%), 55 min (70%), 56–60 min (95%), and 62–70 min (20%).
(§2) Reconstituted solvent extracts (0.050–0.10 mL) of plasma, urine, or feces were injected onto the HPLC column. The post-column eluate was split after UV detection into two streams (0.64 and 0.16 mL/min). The 0.64-mL stream was diverted to a fraction collector (Gilson FX 204; Gilson Medical Electronics, Middleton, WI, USA) to be collected in 96-well plates at 0.16 min/well (ScintiPlates; PerkinElmer Life Sciences, Shelton, CT, USA), and the 0.16-mL stream was directed to the mass spectrometer. The solvent in the 96-well plates was removed at 40 °C using a Genevac evaporator (Genevac, Inc., Stone Ridge, NY, USA).
(§3) The radioactivity counts per minute (CPM) in each well was determined using a MicroBeta scintillation counter (PerkinElmer Life and Analytical Sciences). The resulting CPM vs. time data were processed using Excel (Microsoft Corporation, Seattle, WA, USA). The CPM in each well was background-subtracted (using the average CPM values of the blank region of the HPLC run). Radiochromatographic profiles were obtained by plotting the resulting net CPM values against time after injection. Radioactive peaks in the chromatographic profiles were identified, and the radioactivity in each peak was summed and reported as a percentage of TRA in the HPLC run.

[2] = Metabolite characterization by LC/MS/MS in human plasma, urine, and feces; details: for Matrix (in which the metabolite was found): human plasma, urine, feces, LC/MS/MS
Method: The remaining eluate stream of 0.16 mL/min from the HPLC runs was diverted to the inlet of the mass spectrometer. The samples were analyzed using a heated electrospray ionization probe. Full-scan positive ion MS data were collected using Finnigan Exactive (MS^1) or Q-Exactive (MS^1 and MS^2) mass spectrometers (Thermo Fisher Scientific Inc.) Exact conditions are described in the Online Resource 3.
Finnigan Exactive or Q-Exactive mass spectrometers (Thermo Fisher Scientific Inc., San Jose, CA) were used to collect full scan MS^1 and MS^2 data.

[3] = Plasma pharmacokinetics of TRA, ponatinib and metabolites after a single oral 45-mg [14C]ponatinib dose
Method: The subject release criterion was defined as follows: the combined urine and fecal radioactivity excretion for two consecutive days should fall below 1% of the dose administered.
Detailed procedures on sample collection, storage, and shipment are described in Online Resource 1. […] Fecal homogenates were prepared by adding water (four times the feces weight) and homogenizing.
(§4) TRA analysis was carried out at ABC Laboratories. The radioactivity in plasma (duplicate per time point) and urine samples (triplicate per time point) was quantitated by direct counting in a Beckman LS6000SC or LS6500 liquid scintillation counter (PerkinElmer Life and Analytical Sciences, Boston, MA, USA). Whole blood (duplicate per time point) and fecal homogenate (triplicate per time point) samples were oxidized, and the resultant ^14CO2 was trapped in Carbosorb (Calgon Carbon Corporation, Pittsburgh, PA, USA) in combination with Permafluor, followed by liquid scintillation counting to determine the radioactivity. Individual samples were counted for 5 min for whole blood and fecal matrices, and 10 min for plasma and urine matrices. Predose blood, plasma, urine, and feces samples served as respective control samples to determine and subtract the background radioactivity in the analysis.
M14 was quantitated using a different LC/MS/MS method (Online Resource 2). The pharmacokinetic analysis was carried out using WinNonlin® v6.4 (Pharsight Corp., Mountain View, CA, USA).
Aliquots of 30 µl of calibration standards, quality controls, and incurred plasma samples were transferred into a 96-well plate. Then 150 µl of ice-cold acetonitrile containing 50 ng/ml of AP30376 (d6-AP24600, internal standard) were added. The 96-well plate was vortexed for 10 min and then centrifuged at 4750 rpm for 20 min at 4°C. 100 µl aliquots of the supernatants were transferred into another 96-well plate and the samples were analyzed by liquid chromatography tandem mass spectrometry.

[4] = Metabolite profiling of feces (HPLC-radiochromatography); assay type: in vivo, human; details: 0–144 h pool
Method: One-gram samples of the fecal homogenates were transferred to 50-mL polypropylene tubes, extracted with 4 mL of methanol, and centrifuged (4500g). The resulting residues were extracted three more times (once with 2 mL of methanol and twice with 1 mL of methanol containing 1% formic acid) and centrifuged. All supernatants were combined and evaporated under nitrogen, and the residue was reconstituted with 0.5 mL of methanol, vortexed, sonicated, and centrifuged. A 0.010-mL aliquot of the supernatant was removed for determination of radioactivity, and the remainder of the supernatant was transferred to an HPLC vial and stored at −80 °C.
as §1, §2, §3

[5] = Excretion and mass balance in urine and feces; assay type: in vivo, human
From the text: Six healthy male volunteers, 25–45 years of age, with a mean body weight of 83.3 kg (range 64.5–94.4) and a mean body mass index of 26.9 kg/m^2 (range 20.2–29.9) participated in the study. […] The subject release criterion was defined as follows: the combined urine and fecal radioactivity excretion for two consecutive days should fall below 1% of the dose administered.
Detailed procedures on sample collection, storage, and shipment are described in Online Resource 1. […] Urine and feces collected from each subject were pooled at predose and every 24 h thereafter. Fecal homogenates were prepared by adding water (four times the feces weight) and homogenizing.
as §4
All urine voided was collected and stored in containers at 5±3 °C until the collection interval was completed. Subjects voided in the morning prior to study drug administration.
Multiple collections of urine during each collection interval from each individual subject were pooled. The urine samples from each collection interval were well mixed, accurately weighed, and assessed for its pH. A 100 ml sample from each collection interval from each subject was aliquoted into a separately labeled container to be sent to ABC Laboratories for radioactivity analysis. An approximately 10 ml sample from each collection interval from each subject on day 8 and each day thereafter was used for TRA analysis at Celerion (Lincoln, NE). All urine samples were kept frozen at −80 ± 15 °C.
Stool collections began approximately 24 h prior to drug administration until the end of the postdose sampling period. The 24 h predose samples were used as control samples for the radioactivity analysis and metabolite profiling. Feces were collected daily (24 h collection periods) until subjects were discharged from the clinical research unit.
All fecal samples were collected in polypropylene containers; toilet paper was collected separately. The weight of each sample was recorded. Multiple collections of feces during each collection interval from each individual subject were pooled. The feces samples were thoroughly homogenized with water (4X the weight of the feces). A 100 g sample was aliquoted into a separately labeled container to be sent to ABC Laboratories for radioactivity analysis. An approximately 10 g sample from each collection interval from each subject on day 8 and each day thereafter was used for TRA analysis at Celerion. All fecal homogenate samples were kept frozen at −80 ± 15 °C.

| Compound | % Distribution in plasma ([1]; 0–24 h pooled plasma) | % Distribution in plasma ([1]; 5 h pooled plasma) | % Distribution in plasma ([1]; 10 h pooled plasma) | % Distribution in plasma ([1]; 12 h pooled plasma) | Matrix (in which the metabolite was found) [2] | % Distribution in plasma ([1]; 36 h pooled plasma) | % Distribution in plasma ([1]; 48 h pooled plasma) | % Distribution in plasma ([1]; 72 h pooled plasma) | % Distribution in plasma ([1]; 96 h pooled plasma) | further results |
| --- | --- | --- | --- | --- | --- | --- | --- | --- | --- | --- |
| CN1CCN(Cc2ccc(N)cc2C(F)(F)F)CC1 [M19, 4-((4-methylpiperazin-1-yl)methyl)-3-(trifluoromethyl)aniline] | – | – | – | – | – | – | – | – | – | detection in human samples (plasma, urine, feces) ([2]; in vivo): not observed in any human samples; detection in human samples (plasma, urine, feces) ([2]; male, human, in vivo): The amide hydrolysis also would result in an aniline metabolite M19 (AP24592). However, this metabolite was not detected in any matrices. |
| Cc1ccc([14C](=O)Nc2ccc(CN3CCN(C)CC3)c(C(F)(F)F)c2)cc1C#Cc1cnc2cccnn12 [[^14C]ponatinib] | – | – | – | – | – | – | – | – | – | share of total urinary TRA contained in the 0–72-h pool ([5]; 0–72 h): 84%; cumulative recovery in feces during 0–144 h, share of the TRA in feces ([5]; 0–144 h): 91%; dose recovered in feces ([5]; 0–336 h (days 0–14) postdose): 86.6%; dose recovered in urine ([5]; 0–336 h (days 0–14) postdose): 5.4%; total radioactive dose recovered (urine and feces) ([5]; 0–336 h postdose): 92% |
| CC(=O)Nc1ccc(CN2CCN(C)CC2)c(C(F)(F)F)c1 [M22] | – | – | – | – | Trace: P, U, F | – | – | – | – | detection in human samples (plasma, urine, feces) ([2]; MS traces): trace levels |

The next lines start with results.

| % Distribution in plasma ([1]; 0–24 h pooled plasma) | % Distribution in plasma ([1]; 5 h pooled plasma) | % Distribution in plasma ([1]; 10 h pooled plasma) | % Distribution in plasma ([1]; 12 h pooled plasma) | Matrix (in which the metabolite was found) [2] | Compound | % Distribution in plasma ([1]; 36 h pooled plasma) | % Distribution in plasma ([1]; 48 h pooled plasma) | % Distribution in plasma ([1]; 72 h pooled plasma) | % Distribution in plasma ([1]; 96 h pooled plasma) | further results |
| --- | --- | --- | --- | --- | --- | --- | --- | --- | --- | --- |
| ~0.5–1.0% | ~0.5% | ~0.5–1.0% | ~0.5–1.0% | P, U, F | Cc1ccc(C(=O)Nc2ccc(CN3CC[N+](C)([O-])CC3)c(C(F)(F)F)c2)cc1C#Cc1cnc2cccnn12 [M36, 4-(4-(3-(imidazo[1,2-b]pyridazin-3-ylethynyl)-4-methylbenzamido)-2-(trifluoromethyl)benzyl)-1-methylpiperazine 1-oxide] | – (“–” values less than 0.5% are not reported) | – (“–” values less than 0.5% are not reported) | – (“–” values less than 0.5% are not reported) | – (“–” values less than 0.5% are not reported) | – |
| ~0.5–1.0% | ~0.5–1.0% | ~0.5–1.0% | ~0.5–1.0% | P, U, F | Cc1ccc(C(=O)Nc2ccc(CN3CCNCC3)c(C(F)(F)F)c2)cc1C#Cc1cnc2cccnn12 [M42, 3-(imidazo[1,2-b]pyridazin-3-ylethynyl)-4-methyl-N-(4-(piperazin-1-ylmethyl)-3-(trifluoromethyl)phenyl)benzamide] | – (“–” values less than 0.5% are not reported) | – (“–” values less than 0.5% are not reported) | – (“–” values less than 0.5% are not reported) | – (“–” values less than 0.5% are not reported) | plasma level at 144 h postdose ([3]; human plasma, 144 h postdose): at or below detectable limits; time postdose at which C max / maximal levels in plasma were observed ([3]; human plasma, single oral 45-mg dose, M23 by radiochromatography): 2 to 12 h; concentration at 144 h ([3]; male, human, plasma, oral, 45 mg): < 0.2 nM; AUC(0-inf) ([3]; male, human, plasma, po, 45 mg): 1.8 µM·h; AUC(0-t) ([3]; male, human, plasma, po, 45 mg): 1.61 µM·h; Cmax ([3]; male, human, plasma, po, 45 mg): 107 nM; Tmax ([3]; male, human, plasma, po, 45 mg): 2 h; half-life ([3]; male, human, plasma, po, 45 mg): 56 h; % of total radioactive dose [4]: 8.3%; % Distribution in matrix ([4]; % of fecal TRA): 9.6% |
